From EP1166782A2, “Anti-retroviral pharmaceutical compositions” (Yang, Chi-Chiang, priority 2000, dated 2002)
Read-outs that look alike come from different tables or passages of the source.

Experiments:
T cells-tropic (JRCSF) = test: P24 quantification (P24 EIA) in infected PBMCs, JRCSF; type: cell-based, HIV-1; conditions: PBMC; for concentrations of the viral P24 antigen, JRCSF(+): (+) original concentration of compound maintained after washing; for concentrations of the viral P24 antigen, JRCSF(-): (-) compound removed after washing
Procedure: (§1) PBMCs were treated with various concentrations of CAPE, MC and PEDMC provided in Example 2 and simultaneously infected with […] and macrophage and T cells dual tropic (89.6) HIV-1 isolates. The next day, the added compounds were removed by washing methods or maintained at the same concentration. Samples were divided into two groups and the upernatants of the culture medium were collected at the 3 and 7 days after infection, respectively. The use of P24 EIA Reagent Kit of Abbott Laboratory compares the concentrations of viral P24 antigen with or without the compounds tested.

[1] = system: Peripheral Blood Mononuclear Cells (PBMC); conditions: for The numbers of dead cells in 400 cells' count / % viability: 48 hours; for The numbers of dead cells in 400 cells' count: control 9 dead cells; for % viability: viable cells versus control (391);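 for all read-outs here: trypan blue dye exclusion, cells stained and counted from quadruplicate dishes, DMSO vehicle kept under 0.5%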
[2] = system: macrophage and T cells dual tropic (89.6); test: P24 quantification (P24 EIA) in infected PBMCs, 89.6; type: cell-based, HIV-1; conditions: PBMC; for concentrations of the viral P24 antigen, 89.6(+): (+) original concentration of compound maintained after washing; for concentrations of the viral P24 antigen, 89.6(-): (-) compound removed after washing
Procedure: as §1

[3] = system: macrophage-tropic (NL-43); test: P24 quantification (P24 EIA) in infected PBMCs, NL-43; type: cell-based, HIV-1; conditions: PBMC; for concentrations of the viral P24 antigen, NL43(+): (+) original concentration of compound maintained after washing; for concentrations of the viral P24 antigen, NL43(-): (-) compound removed after washing
Procedure: as §1

[4] = system: various HIV isolates (NL-43, JRCSF or 89.6); test: P24 quantification, summary statements over all isolates; type: cell-based, HIV-1
Procedure: as §1

COC(=O)/C=C/c1ccc(O)c(O)c1 [MC, methyl caffeate] was tested, and the “concentrations of the viral P24 antigen, JRCSF(+)” value (shortened to “concentrations … JRCSF(+)”) (T cells-tropic (JRCSF); 0.1 µM) was 1000 unit, the “concentrations of the viral P24 antigen, JRCSF(-)” value (“concentrations … JRCSF(-)” below) (T cells-tropic (JRCSF); 0.1 µM) was 1000 unit and the “concentrations … JRCSF(+)” value (T cells-tropic (JRCSF); 0.5 µM) was 1000 unit. The “concentrations … JRCSF(-)” value (T cells-tropic (JRCSF); 0.5 µM) was 1000 unit, the “concentrations … JRCSF(+)” value (T cells-tropic (JRCSF); 1 µM) was 1000 unit and the “concentrations … JRCSF(-)” value (T cells-tropic (JRCSF); 1 µM) was 1000 unit. The “concentrations … JRCSF(+)” value (T cells-tropic (JRCSF); 5 µM) was 58.13 unit, the “concentrations … JRCSF(-)” value (T cells-tropic (JRCSF); 5 µM) was 1000 unit and the “concentrations … JRCSF(+)” value (T cells-tropic (JRCSF); 10 µM) was 2.53 unit. The “concentrations … JRCSF(-)” value (T cells-tropic (JRCSF); 10 µM) was 828.46 unit, the “concentrations … JRCSF(+)” value (T cells-tropic (JRCSF); 25 µM) was 2.33 unit and the “concentrations … JRCSF(-)” value (T cells-tropic (JRCSF); 25 µM) was 786.67 unit. The “concentrations … JRCSF(+)” value (T cells-tropic (JRCSF); 50 µM) was 0 unit, the “concentrations … JRCSF(-)” value (T cells-tropic (JRCSF); 50 µM) was 42.64 unit and the “concentrations … JRCSF(+)” value (T cells-tropic (JRCSF); 100 µM) was 0 unit. The “concentrations … JRCSF(-)” value (T cells-tropic (JRCSF); 100 µM) was 0 unit, the “concentrations … JRCSF(+)” value (T cells-tropic (JRCSF); 200 µM) was 0 unit and the “concentrations … JRCSF(-)” value (T cells-tropic (JRCSF); 200 µM) was 0 unit. The “concentrations … JRCSF(+)” value (T cells-tropic (JRCSF); 400 µM) was 0 unit, the “concentrations … JRCSF(-)” value (T cells-tropic (JRCSF); 400 µM) was 0 unit and the “The numbers of dead cells in 400 cells' count” value (from here on “The numbers of dead cells”) ([1]; 0.1 µM) was 9. The “% viability” value ([1]; 0.1 µM) was 391/391 (100%), the “The numbers of dead cells” value ([1]; 0.5 µM) was 7 and the “% viability” value ([1]; 0.5 µM) was 393/391 (100.5%). For the same compound, the “The numbers of dead cells” value ([1]; 1 µM) was 12, the “% viability” value ([1]; 1 µM) was 388/391 (99.2%) and the “The numbers of dead cells” value ([1]; 5 µM) was 9. The “% viability” value ([1]; 5 µM) was 391/391 (100%), the “The numbers of dead cells” value ([1]; 10 µM) was 7 and the “% viability” value ([1]; 10 µM) was 393/391 (100.5%). The “The numbers of dead cells” value ([1]; 25 µM) was 11, the “% viability” value ([1]; 25 µM) was 389/391 (99.5%) and the “The numbers of dead cells” value ([1]; 50 µM) was 11. The “% viability” value ([1]; 50 µM) was 389/391 (99.5%), the “The numbers of dead cells” value ([1]; 100 µM) was 7 and the “% viability” value ([1]; 100 µM) was 393/391 (100.5%). For the same compound, the “The numbers of dead cells” value ([1]; 200 µM) was 8, the “% viability” value ([1]; 200 µM) was 392/391 (100.3%) and the “The numbers of dead cells” value ([1]; 400 µM) was 7. The “% viability” value ([1]; 400 µM) was 393/391 (100.5%), the “viabilities of PBMC under high-dose versus low-dose treatments (result in words)” value ([1]; high dose up to 400 µM compared with 0.1-10 µM) was “no substantial differences” and the “concentrations of the viral P24 antigen, 89.6(+)” value (shortened to “concentrations … 89.6(+)”) ([2]; 0.1 µM) was 1000 unit. The “concentrations of the viral P24 antigen, 89.6(-)” value (shortened to “concentrations … 89.6(-)”) ([2]; 0.1 µM) was 1000 unit, the “concentrations … 89.6(+)” value ([2]; 0.5 µM) was 954.88 unit and the “concentrations … 89.6(-)” value ([2]; 0.5 µM) was 1000 unit. The “concentrations … 89.6(+)” value ([2]; 1 µM) was 149.67 unit, the “concentrations … 89.6(-)” value ([2]; 1 µM) was 966.67 unit and the “concentrations … 89.6(+)” value ([2]; 5 µM) was 66.78 unit. The “concentrations … 89.6(-)” value ([2]; 5 µM) was 1000 unit, the “concentrations … 89.6(+)” value ([2]; 10 µM) was 14.36 unit and the “concentrations … 89.6(-)” value ([2]; 10 µM) was 624.39 unit. For the same compound, the “concentrations … 89.6(+)” value ([2]; 25 µM) was 5.2 unit, the “concentrations … 89.6(-)” value ([2]; 25 µM) was 504.42 unit and the “concentrations … 89.6(+)” value ([2]; 50 µM) was 18.4 unit. For the same compound, the “concentrations … 89.6(-)” value ([2]; 50 µM) was 286.46 unit, the “concentrations … 89.6(+)” value ([2]; 100 µM) was 8.91 unit and the “concentrations … 89.6(-)” value ([2]; 100 µM) was 278.43 unit. For the same compound, the “concentrations … 89.6(+)” value ([2]; 200 µM) was 0 unit, the “concentrations … 89.6(-)” value ([2]; 200 µM) was 124.97 unit and the “concentrations … 89.6(+)” value ([2]; 400 µM) was 0 unit. The “concentrations … 89.6(-)” value ([2]; 400 µM) was 0 unit, the “concentrations of the viral P24 antigen, NL43(+)” value (shortened to “concentrations … NL43(+)”) ([3]; 0.1 µM) was 1000 unit and the “concentrations of the viral P24 antigen, NL43(-)” value (shortened to “concentrations … NL43(-)”) ([3]; 0.1 µM) was 1000 unit. For the same compound, the “concentrations … NL43(+)” value ([3]; 0.5 µM) was 1000 unit, the “concentrations … NL43(-)” value ([3]; 0.5 µM) was 1000 unit and the “concentrations … NL43(+)” value ([3]; 1 µM) was 1000 unit. The “concentrations … NL43(-)” value ([3]; 1 µM) was 1000 unit, the “concentrations … NL43(+)” value ([3]; 5 µM) was 1000 unit and the “concentrations … NL43(-)” value ([3]; 5 µM) was 1000 unit. The “concentrations … NL43(+)” value ([3]; 10 µM) was 1000 unit, the “concentrations … NL43(-)” value ([3]; 10 µM) was 1000 unit and the “concentrations … NL43(+)” value ([3]; 25 µM) was 220.63 unit. The “concentrations … NL43(-)” value ([3]; 25 µM) was 1000 unit, the “concentrations … NL43(+)” value ([3]; 50 µM) was 273.07 unit and the “concentrations … NL43(-)” value ([3]; 50 µM) was 922.63 unit. The “concentrations … NL43(+)” value ([3]; 100 µM) was 0 unit, the “concentrations … NL43(-)” value ([3]; 100 µM) was 687.24 unit and the “concentrations … NL43(+)” value ([3]; 200 µM) was 0 unit. The “concentrations … NL43(-)” value ([3]; 200 µM) was 518.45 unit, the “concentrations … NL43(+)” value ([3]; 400 µM) was 0 unit and the “concentrations … NL43(-)” value ([3]; 400 µM) was 2.53 unit. For the same compound, the “viral replications (result in words)” value ([4]; Figures 3-5, PBMC infected with NL-43, JRCSF or 89.6) was “significantly inhibited viral replications” and the inhibit viral replication ([4]; at the concentration of 100 µM or less, various HIV isolates) was 100%.
